Experimental data reported in paper PMC4138078, “Chemically Modified Peptide Scaffolds Target the CFTR-Associated Ligand PDZ Domain” (PLoS ONE, 2014).
Structures can show the parent of a compound that is named as a salt. Peptide text beside a SMILES is read from it. * marks the point of attachment. Benzoyl(4-Br) = O=C(c1ccc(Br)cc1)*; Benzoyl(4-F) = O=C(c1ccc(F)cc1)*; Tfa = O=C(C(F)(F)F)*

Tests used:
Format in all cases: binding
[1] = biological target: T1, CAL PDZ domain (CALP) (Homo sapiens, UniProt Q9HD26); test: Surface plasmon resonance (SPR), equilibrium analysis; settings: SPR value relative to FP value
T1 construct: made in house
Method: SPR experiments were performed on a Biacore X100 Plus (GE Healthcare Life Sciences), with CALP covalently immobilized on a CM5 sensor chip. […] Sensorgrams were analyzed using the Biacore evaluation software. Experiments were performed in duplicate or triplicate (n≥2). A detailed description is provided in ref. [21].

[2] = biological target: T1, CAL PDZ domain (CALP); test: Isothermal titration calorimetry (ITC); settings: ITC value relative to FP value
Method: ITC experiments were performed and analyzed in a manner similar to that described previously, [20]. Titrations were performed with a Nano ITC 2G (TA Instruments). In brief, for a typical titration, 100–320 µM CALP was loaded into the 943 µL sample cell, and 2–3 mM peptide placed in a 250 µL injector syringe. For [drawing 8] , titrations were performed with polyhistidine-tagged CALP. Peptide concentrations were adjusted based on the amount of protein, so the final ratio of peptide to protein ranged between 3∶1–4∶1. Each titration included an initial 1 or 2 µL injection followed by 5 or 10 µL injections performed at 180 s intervals, for a total of 25–50 injections. The stirring speed was 250 rpm, and experimental temperature was 25°C. Thermograms were analyzed using NanoAnalyze software (TA Instruments). Details are described in ref. [21].

[3] = biological target: T1, CAL PDZ domain (CALP); test: Fluorescence polarization (FP) competition/displacement assay; settings: for binding affinity stronger than iCAL36: FP displacement
Method: FP competition experiments were performed as previously described, [17].
For illustrative purposes, a logistic curve-fit is shown, but K I values and fractional reporter occupancy values were determined by least-squares fitting of the complete binding equation.

Row | Compound | fold-deviation of K D from SPR from the value obtained by FP [1] | fold-deviation of K D from ITC from the value obtained by FP [2] | binding affinity stronger than iCAL36 [3] [fold] | change in binding affinity compared to iCAL36 ([3]; head-to-head FP displacement assays)
1 | CC[C@H](C)[C@H](NC(=O)[C@@H](NC(=O)[C@H](CO)NC(=O)[C@@H](NC(=O)[C@H](CCCCNC(C)=O)NC(=O)[C@H](Cc1c[nH]c2ccccc12)NC(=O)[C@H](CCCNC(=N)N)NC(=O)[C@H](CO)NC(=O)[C@H](CC(N)=O)NC(=O)[C@H](C)N)[C@@H](C)O)[C@@H](C)CC)C(=O)O [Peptide C00003] | (2.0) fold | (1.5) fold |  | 
2 | H-ANSRWPTSK(Ac)I-OH [Peptide C00001] | (2.7) fold | (1.8) fold |  | 
3 | CC[C@H](C)[C@H](NC(=O)[C@@H](NC(=O)[C@H](CO)NC(=O)[C@@H](NC(=O)[C@@H]1CCCN1C(=O)[C@H](CCCCNC(C)=O)NC(=O)[C@H](CCCNC(=N)N)NC(=O)[C@H](CO)NC(=O)[C@H](CC(N)=O)NC(=O)[C@H](C)N)[C@@H](C)O)[C@@H](C)CC)C(=O)O [Peptide C00004] | (0.5) fold |  |  | 
4 | CC[C@H](C)[C@H](NC(=O)[C@H](CCCCNC(=O)c1ccc(F)cc1)NC(=O)[C@H](CO)NC(=O)[C@@H](NC(=O)[C@@H]1CCCN1C(=O)[C@H](Cc1c[nH]c2ccccc12)NC(=O)[C@H](CCCNC(=N)N)NC(=O)[C@H](CO)NC(=O)[C@H](CC(N)=O)NC(=O)[C@H](C)N)[C@@H](C)O)C(=O)O [Peptide C00006] (H-ANSRWPTSK(Benzoyl(4-F))I-OH) | (2.4) fold | (1.1) fold | ~2 | 
5 | CC[C@H](C)[C@H](NC(=O)[C@H](CCCCNC(=O)c1ccc(Br)cc1)NC(=O)[C@H](CO)NC(=O)[C@@H](NC(=O)[C@@H]1CCCN1C(=O)[C@H](Cc1c[nH]c2ccccc12)NC(=O)[C@H](CCCNC(=N)N)NC(=O)[C@H](CO)NC(=O)[C@H](CC(N)=O)NC(=O)[C@H](C)N)[C@@H](C)O)C(=O)O [Peptide C00005] (H-ANSRWPTSK(Benzoyl(4-Br))I-OH) | (1.8) fold | (1.9) fold | ~2 | 
6 | CC[C@H](C)[C@H](NC(=O)[C@@H](NC(=O)[C@H](CO)NC(=O)[C@@H](NC(=O)[C@@H]1CCCN1C(=O)[C@H](Cc1c[nH]c2ccccc12)NC(=O)[C@H](CCCNC(=N)N)NC(=O)[C@H](CO)NC(=O)[C@H](CC(N)=O)NC(=O)[C@H](C)NC(C)=O)[C@@H](C)O)[C@@H](C)CC)C(=O)O [Ac-iCAL36] |  |  |  | no significant change
7 | CC[C@H](C)[C@H](NC(=O)[C@H](CCCCNC(=O)C(F)(F)F)NC(=O)[C@H](CO)NC(=O)[C@@H](NC(=O)[C@@H]1CCCN1C(=O)[C@H](Cc1c[nH]c2ccccc12)NC(=O)[C@H](CCCNC(=N)N)NC(=O)[C@H](CO)NC(=O)[C@H](CC(N)=O)NC(=O)[C@H](C)N)[C@@H](C)O)C(=O)O [Peptide C00007] (H-ANSRWPTSK(Tfa)I-OH) | (1.6) fold | (2.4) fold |  | 
8 | H-ANSRWPK(Ac)SII-OH [Peptide C00002] | (0.7) fold | (0.5) fold |  | 
